Measurements: ChEMBL document CHEMBL2321780, “Fluorinated quinazolinones as potential radiotracers for imaging kinesin spindle protein expression” (2013)

Key:
SK-OV-3 = test: Nonspecific cytotoxicity against human SKOV3 cells after 44 hrs by MTT assay; format: functional; details: SK-OV-3, 44 h
PC-3 = test: Nonspecific cytotoxicity against human PC3 cells after 44 hrs by MTT assay; format: functional; details: PC-3, 44 h
DU-145 = test: Nonspecific cytotoxicity against human DU145 cells after 44 hrs by MTT assay; format: functional; details: DU-145, 44 h
[1] = target: T1, Kinesin-like protein KIFC3 (Homo sapiens) (UniProt Q9BVG8); test: Inhibition of KIFC3 (unknown origin)-mediated ATP hydrolysis assessed as residual activity at 1 uM after 10 to 20 mins by spectrophotometric analysis
T1 sequence (whole entry): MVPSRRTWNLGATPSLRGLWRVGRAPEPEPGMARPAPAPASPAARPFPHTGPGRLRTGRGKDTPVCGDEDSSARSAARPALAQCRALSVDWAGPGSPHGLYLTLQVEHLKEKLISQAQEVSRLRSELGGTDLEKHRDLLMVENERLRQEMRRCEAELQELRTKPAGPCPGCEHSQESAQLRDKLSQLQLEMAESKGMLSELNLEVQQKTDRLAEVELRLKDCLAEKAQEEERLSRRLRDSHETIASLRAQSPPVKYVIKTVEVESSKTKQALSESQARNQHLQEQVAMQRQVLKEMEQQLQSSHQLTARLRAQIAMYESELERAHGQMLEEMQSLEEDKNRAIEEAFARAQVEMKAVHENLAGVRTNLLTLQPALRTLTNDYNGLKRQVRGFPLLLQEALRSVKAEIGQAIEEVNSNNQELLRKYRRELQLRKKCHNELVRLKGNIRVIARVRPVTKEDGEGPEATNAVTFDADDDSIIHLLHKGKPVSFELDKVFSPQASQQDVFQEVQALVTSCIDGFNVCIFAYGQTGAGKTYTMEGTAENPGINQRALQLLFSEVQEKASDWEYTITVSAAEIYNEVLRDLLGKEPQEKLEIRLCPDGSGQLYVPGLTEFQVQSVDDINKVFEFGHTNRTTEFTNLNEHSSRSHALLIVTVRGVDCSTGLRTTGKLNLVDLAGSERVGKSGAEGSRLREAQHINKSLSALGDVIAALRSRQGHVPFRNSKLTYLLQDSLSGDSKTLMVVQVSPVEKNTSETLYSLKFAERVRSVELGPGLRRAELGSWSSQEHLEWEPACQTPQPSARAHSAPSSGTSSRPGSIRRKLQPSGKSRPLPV

[2] = target: T2, Kinesin-like protein KIF2C (Homo sapiens) (UniProt Q99661); test: Inhibition of MCAK (unknown origin)-mediated ATP hydrolysis assessed as residual activity at 1 uM after 10 to 20 mins by spectrophotometric analysis
T2 sequence (whole entry): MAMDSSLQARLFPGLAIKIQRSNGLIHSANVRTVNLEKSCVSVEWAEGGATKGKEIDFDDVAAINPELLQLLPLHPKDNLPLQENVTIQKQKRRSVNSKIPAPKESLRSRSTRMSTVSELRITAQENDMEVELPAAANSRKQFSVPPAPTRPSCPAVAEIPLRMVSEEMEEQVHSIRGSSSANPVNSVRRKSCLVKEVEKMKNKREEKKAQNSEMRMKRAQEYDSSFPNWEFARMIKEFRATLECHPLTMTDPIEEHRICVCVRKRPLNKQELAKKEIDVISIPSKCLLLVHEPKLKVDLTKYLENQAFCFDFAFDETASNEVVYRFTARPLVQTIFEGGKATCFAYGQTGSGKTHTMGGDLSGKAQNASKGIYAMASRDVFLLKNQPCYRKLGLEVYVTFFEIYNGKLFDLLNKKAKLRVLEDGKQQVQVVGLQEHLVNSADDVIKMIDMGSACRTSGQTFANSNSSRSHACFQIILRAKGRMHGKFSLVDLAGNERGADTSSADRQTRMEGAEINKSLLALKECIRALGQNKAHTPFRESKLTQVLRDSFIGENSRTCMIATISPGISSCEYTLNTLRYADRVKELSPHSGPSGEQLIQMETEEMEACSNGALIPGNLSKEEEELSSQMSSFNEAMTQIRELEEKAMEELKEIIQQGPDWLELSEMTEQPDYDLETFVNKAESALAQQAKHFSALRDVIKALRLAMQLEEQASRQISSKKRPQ

[3] = target: Centromere-associated protein E (Homo sapiens) (UniProt Q02224); test: Inhibition of CENP-E (unknown origin)-mediated ATP hydrolysis assessed as residual activity at 1 uM after 10 to 20 mins by spectrophotometric analysis
Sequence of Centromere-associated protein E (Homo sapiens) (Q02224 whole entry): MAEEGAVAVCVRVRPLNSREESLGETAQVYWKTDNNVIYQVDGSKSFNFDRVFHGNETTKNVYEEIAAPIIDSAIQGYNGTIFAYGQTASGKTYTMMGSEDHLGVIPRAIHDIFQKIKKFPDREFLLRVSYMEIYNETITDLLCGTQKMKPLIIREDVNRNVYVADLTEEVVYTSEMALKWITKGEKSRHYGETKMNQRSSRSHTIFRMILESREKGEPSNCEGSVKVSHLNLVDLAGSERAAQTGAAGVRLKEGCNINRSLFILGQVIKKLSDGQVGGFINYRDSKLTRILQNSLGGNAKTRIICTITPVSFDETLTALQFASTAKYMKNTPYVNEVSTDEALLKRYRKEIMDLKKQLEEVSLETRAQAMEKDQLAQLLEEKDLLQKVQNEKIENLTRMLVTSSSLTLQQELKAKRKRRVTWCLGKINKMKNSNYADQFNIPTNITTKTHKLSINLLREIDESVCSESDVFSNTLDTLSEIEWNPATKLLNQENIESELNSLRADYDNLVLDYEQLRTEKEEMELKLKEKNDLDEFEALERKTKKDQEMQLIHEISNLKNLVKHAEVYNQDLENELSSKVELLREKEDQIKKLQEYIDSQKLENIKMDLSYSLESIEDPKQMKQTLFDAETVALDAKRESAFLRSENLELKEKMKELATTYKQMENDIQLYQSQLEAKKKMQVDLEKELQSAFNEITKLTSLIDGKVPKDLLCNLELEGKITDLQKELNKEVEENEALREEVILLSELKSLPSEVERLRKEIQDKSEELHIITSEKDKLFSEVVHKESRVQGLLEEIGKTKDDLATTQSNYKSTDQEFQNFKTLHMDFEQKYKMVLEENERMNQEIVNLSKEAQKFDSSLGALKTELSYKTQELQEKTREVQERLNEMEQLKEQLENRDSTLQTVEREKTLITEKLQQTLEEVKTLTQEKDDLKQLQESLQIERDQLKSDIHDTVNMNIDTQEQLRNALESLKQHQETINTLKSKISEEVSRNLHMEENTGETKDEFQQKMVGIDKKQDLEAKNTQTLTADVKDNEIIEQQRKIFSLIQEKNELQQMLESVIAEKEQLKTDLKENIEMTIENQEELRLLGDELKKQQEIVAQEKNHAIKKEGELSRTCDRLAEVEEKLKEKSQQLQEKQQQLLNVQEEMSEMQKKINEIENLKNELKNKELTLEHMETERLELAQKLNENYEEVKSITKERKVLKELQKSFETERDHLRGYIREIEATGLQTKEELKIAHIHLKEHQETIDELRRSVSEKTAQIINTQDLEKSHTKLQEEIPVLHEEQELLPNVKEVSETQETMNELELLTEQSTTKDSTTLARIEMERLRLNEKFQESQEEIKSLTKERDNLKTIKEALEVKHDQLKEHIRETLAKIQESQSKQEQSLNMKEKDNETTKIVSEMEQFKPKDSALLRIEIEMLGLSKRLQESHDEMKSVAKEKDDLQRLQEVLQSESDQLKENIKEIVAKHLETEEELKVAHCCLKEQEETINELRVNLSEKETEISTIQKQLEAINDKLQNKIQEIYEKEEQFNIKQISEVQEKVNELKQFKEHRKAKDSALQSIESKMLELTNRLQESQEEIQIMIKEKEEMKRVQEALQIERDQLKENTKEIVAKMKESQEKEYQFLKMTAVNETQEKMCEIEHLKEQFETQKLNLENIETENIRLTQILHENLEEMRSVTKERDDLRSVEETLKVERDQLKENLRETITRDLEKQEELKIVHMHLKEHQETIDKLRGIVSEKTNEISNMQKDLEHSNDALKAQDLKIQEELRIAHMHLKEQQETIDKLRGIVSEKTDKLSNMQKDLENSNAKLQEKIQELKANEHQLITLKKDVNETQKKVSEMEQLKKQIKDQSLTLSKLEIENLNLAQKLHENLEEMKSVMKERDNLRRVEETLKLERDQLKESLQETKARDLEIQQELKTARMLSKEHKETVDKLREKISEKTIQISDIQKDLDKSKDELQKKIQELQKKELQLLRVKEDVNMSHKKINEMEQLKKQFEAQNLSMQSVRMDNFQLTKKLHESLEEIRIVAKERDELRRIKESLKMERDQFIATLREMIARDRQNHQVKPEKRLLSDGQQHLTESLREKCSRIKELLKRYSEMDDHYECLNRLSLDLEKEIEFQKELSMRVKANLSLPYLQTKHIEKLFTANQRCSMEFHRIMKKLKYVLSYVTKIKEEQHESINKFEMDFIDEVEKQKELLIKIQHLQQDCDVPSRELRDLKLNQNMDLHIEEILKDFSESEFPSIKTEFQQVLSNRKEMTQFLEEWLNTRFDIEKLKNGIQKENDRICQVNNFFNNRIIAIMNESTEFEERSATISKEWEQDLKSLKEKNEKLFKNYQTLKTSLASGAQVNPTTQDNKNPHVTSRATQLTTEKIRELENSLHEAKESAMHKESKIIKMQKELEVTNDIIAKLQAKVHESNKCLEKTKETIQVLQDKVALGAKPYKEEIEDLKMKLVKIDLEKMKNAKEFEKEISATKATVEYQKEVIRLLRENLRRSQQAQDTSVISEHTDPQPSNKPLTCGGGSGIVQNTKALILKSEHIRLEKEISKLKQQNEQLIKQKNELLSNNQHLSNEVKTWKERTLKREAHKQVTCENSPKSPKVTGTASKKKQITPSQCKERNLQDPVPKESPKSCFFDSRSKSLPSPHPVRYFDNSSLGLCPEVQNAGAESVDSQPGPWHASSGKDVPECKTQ

[4] = target: T3, Kinesin-like protein KIF11 (Homo sapiens) (UniProt P52732); test: Inhibition of KSP (unknown origin)-mediated ATP hydrolysis assessed as residual activity at 1 uM after 10 to 20 mins by spectrophotometric analysis
T3 sequence (whole entry): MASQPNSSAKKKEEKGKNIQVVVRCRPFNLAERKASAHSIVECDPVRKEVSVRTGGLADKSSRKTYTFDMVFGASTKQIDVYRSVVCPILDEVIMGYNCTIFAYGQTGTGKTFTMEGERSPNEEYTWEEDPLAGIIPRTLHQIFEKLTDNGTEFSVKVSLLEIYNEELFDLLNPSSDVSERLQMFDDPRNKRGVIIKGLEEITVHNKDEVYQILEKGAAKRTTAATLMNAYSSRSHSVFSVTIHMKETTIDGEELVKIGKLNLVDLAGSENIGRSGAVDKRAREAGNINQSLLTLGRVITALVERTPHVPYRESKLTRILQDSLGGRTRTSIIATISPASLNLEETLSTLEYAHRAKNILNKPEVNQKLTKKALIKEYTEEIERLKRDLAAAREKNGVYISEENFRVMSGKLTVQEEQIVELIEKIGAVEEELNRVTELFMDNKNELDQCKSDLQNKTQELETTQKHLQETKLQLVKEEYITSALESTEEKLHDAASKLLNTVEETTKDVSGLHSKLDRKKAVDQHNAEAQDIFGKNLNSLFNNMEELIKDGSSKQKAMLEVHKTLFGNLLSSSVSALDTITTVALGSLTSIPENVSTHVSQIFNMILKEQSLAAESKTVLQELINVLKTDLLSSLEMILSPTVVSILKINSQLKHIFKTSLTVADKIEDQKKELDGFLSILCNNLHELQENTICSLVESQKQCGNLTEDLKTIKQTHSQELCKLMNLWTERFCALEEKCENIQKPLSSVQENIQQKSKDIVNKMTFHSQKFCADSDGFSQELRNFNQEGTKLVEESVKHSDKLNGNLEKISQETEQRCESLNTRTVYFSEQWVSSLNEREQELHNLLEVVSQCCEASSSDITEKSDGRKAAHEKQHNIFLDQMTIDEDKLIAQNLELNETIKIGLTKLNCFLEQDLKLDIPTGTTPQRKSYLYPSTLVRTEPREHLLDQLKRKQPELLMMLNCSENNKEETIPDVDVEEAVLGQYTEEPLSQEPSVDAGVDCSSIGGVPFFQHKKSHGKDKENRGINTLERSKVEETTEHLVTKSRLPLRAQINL

SMILES	GI50 (SK-OV-3) [µM]	GI50 (PC-3) [µM]	GI50 (DU-145) [µM]	Activity [1] [%]	Activity [2] [%]	Activity [3] [%]	Activity [4] [%]
CC(C)[C@@H](c1nc2cc(Cl)ccc2c(=O)n1Cc1ccccc1)N(CCCN)C(=O)c1ccc(F)cc1	0.5	1.3	0.35	98.7	98.9	97.4	96.1
Cc1ccc(C(=O)N(CCCN)[C@@H](c2nc3cc(Cl)ccc3c(=O)n2Cc2ccccc2)C(C)C)cc1 [ISPINESIB]	–	–	–	97.3	96.7	98	8.8
CC(C)[C@@H](c1nc2cc(Cl)ccc2c(=O)n1Cc1ccccc1)N(CCCN)C(=O)c1cccc(F)c1	1.1	1.8	0.52	98.9	98.6	100	95.5
CC(C)[C@H](c1nc2cc(Cl)ccc2c(=O)n1Cc1ccccc1)N(CCCN)C(=O)c1ccc(F)cc1	15.4	5.1	2.2	101	99.2	99.8	2.7
CC(C)[C@H](c1nc2cc(Cl)ccc2c(=O)n1Cc1ccccc1)N(CCCN)C(=O)c1ccccc1F	5.35	4.6	5.6	99.4	98.7	99.1	7.5
CC(C)C(c1nc2cc(Cl)ccc2c(=O)n1Cc1ccccc1)N(CCCN)C(=O)c1cccc(F)c1 (racemic)	5.7	7.6	3.3	99.4	96.4	97.4	10.1
CC(C)[C@@H](c1nc2cc(Cl)ccc2c(=O)n1Cc1ccccc1)N(CCCN)C(=O)c1ccccc1F	0.85	0.16	0.72	98.8	98.2	97.9	95.9
Cc1ccc(C(=O)N(CCCN)[C@H](c2nc3cc(Cl)ccc3c(=O)n2Cc2ccccc2)C(C)C)cc1	–	–	–	97.9	99.2	99.1	99.4
